From PubChem BioAssay (NCI)
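GI50 is the concentration that inhibits growth by half. TGI is the concentration that stops growth completely.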

Key:
Assay in all cases: NCI tumour cell line growth inhibition, 384-well format
COLO 205 colon = tested on: COLO 205 colon
786-0 renal = tested on: 786-0 renal
HCC-2998 colon = tested on: HCC-2998 colon
HCT-116 colon = tested on: HCT-116 colon
HT29 colon = tested on: HT29 colon
NCI/ADR-RES ovarian = tested on: NCI/ADR-RES ovarian
SK-OV-3 ovarian = tested on: SK-OV-3 ovarian
OVCAR-8 ovarian = tested on: OVCAR-8 ovarian
SW-620 colon = tested on: SW-620 colon
MCF7 breast = tested on: MCF7 breast
T-47D breast = tested on: T-47D breast
HOP-92 NSCLC = tested on: HOP-92 NSCLC
KM12 colon = tested on: KM12 colon
SNB-19 CNS = tested on: SNB-19 CNS
BT-549 breast = tested on: BT-549 breast
U251 glioblastoma = tested on: U251 glioblastoma
TK-10 renal = tested on: TK-10 renal
MDA-MB-231 breast = tested on: MDA-MB-231 breast
HL-60(TB) leukemia = tested on: HL-60(TB) leukemia
M14 melanoma = tested on: M14 melanoma
LOX IMVI melanoma = tested on: LOX IMVI melanoma
RPMI-8226 leukemia = tested on: RPMI-8226 leukemia
NCI-H322M lung = tested on: NCI-H322M lung
MDA-MB-435 melanoma = tested on: MDA-MB-435 melanoma
NCI-H460 NSCLC = tested on: NCI-H460 NSCLC
HS 578T breast = tested on: HS 578T breast
SF-268 CNS = tested on: SF-268 CNS
UO-31 renal = tested on: UO-31 renal
NCI-H23 lung = tested on: NCI-H23 lung
SNB-75 CNS = tested on: SNB-75 CNS
NCI-H522 lung = tested on: NCI-H522 lung
NCI-H226 lung = tested on: NCI-H226 lung
HCT-15 colon = tested on: HCT-15 colon
IGROV1 ovarian = tested on: IGROV1 ovarian
HOP-62 NSCLC = tested on: HOP-62 NSCLC
SK-MEL-5 melanoma = tested on: SK-MEL-5 melanoma
MDA-MB-468 breast = tested on: MDA-MB-468 breast
OVCAR-5 ovarian = tested on: OVCAR-5 ovarian
CCRF-CEM leukemia = tested on: CCRF-CEM leukemia
MALME-3M melanoma = tested on: MALME-3M melanoma
EKVX NSCLC = tested on: EKVX NSCLC
OVCAR-3 ovarian = tested on: OVCAR-3 ovarian
OVCAR-4 ovarian = tested on: OVCAR-4 ovarian
A549 NSCLC = tested on: A549 NSCLC
PC-3 prostate = tested on: PC-3 prostate
SN12C renal = tested on: SN12C renal
MOLT-4 leukemia = tested on: MOLT-4 leukemia
SR leukemia = tested on: SR leukemia
SF-295 CNS = tested on: SF-295 CNS
SF-539 CNS = tested on: SF-539 CNS
DU-145 prostate = tested on: DU-145 prostate
RXF 393 renal = tested on: RXF 393 renal

COc1ccc(-c2cc3c(C)nc(N)nc3n(C3CCC(OCCO)CC3)c2=O)cn1 (centres undefined)
GI50 (COLO 205 colon): 126 nM | TGI (COLO 205 colon): 1350 nM | GI50 (786-0 renal): 268 nM | TGI (786-0 renal): 1530 nM | GI50 (HCC-2998 colon): 222 nM | TGI (HCC-2998 colon): 1670 nM | GI50 (HCT-116 colon): 260 nM | TGI (HCT-116 colon): 10500 nM | GI50 (HT29 colon): 228 nM | TGI (HT29 colon): 5150 nM | GI50 (NCI/ADR-RES ovarian): 241 nM | TGI (NCI/ADR-RES ovarian): 2270 nM | GI50 (SK-OV-3 ovarian): 80.5 nM | TGI (SK-OV-3 ovarian): 394 nM | GI50 (OVCAR-8 ovarian): 245 nM | TGI (OVCAR-8 ovarian): 6520 nM | GI50 (SW-620 colon): 315 nM | TGI (SW-620 colon): > 100000 nM | GI50 (MCF7 breast): 20.7 nM | TGI (MCF7 breast): 12700 nM | GI50 (T-47D breast): 19.9 nM | TGI (T-47D breast): 84.6 nM | GI50 (HOP-92 NSCLC): 43.1 nM | TGI (HOP-92 NSCLC): 302 nM | GI50 (KM12 colon): 318 nM | TGI (KM12 colon): 33200 nM | GI50 (SNB-19 CNS): 896 nM | TGI (SNB-19 CNS): 2260 nM | GI50 (BT-549 breast): 114 nM | TGI (BT-549 breast): 630 nM | GI50 (U251 glioblastoma): 490 nM | TGI (U251 glioblastoma): 1980 nM | GI50 (TK-10 renal): 65.8 nM | TGI (TK-10 renal): 408 nM | GI50 (MDA-MB-231 breast): 229 nM | TGI (MDA-MB-231 breast): 2370 nM | GI50 (HL-60(TB) leukemia): 17.9 nM | TGI (HL-60(TB) leukemia): 191 nM | GI50 (M14 melanoma): 97.8 nM | TGI (M14 melanoma): 4560 nM | GI50 (LOX IMVI melanoma): 222 nM | TGI (LOX IMVI melanoma): 1150 nM | GI50 (RPMI-8226 leukemia): 28.7 nM | TGI (RPMI-8226 leukemia): 105 nM | GI50 (NCI-H322M lung): 149 nM | TGI (NCI-H322M lung): 13300 nM | GI50 (MDA-MB-435 melanoma): 220 nM | TGI (MDA-MB-435 melanoma): 1610 nM | GI50 (NCI-H460 NSCLC): 40.9 nM | TGI (NCI-H460 NSCLC): 11600 nM | GI50 (HS 578T breast): 42.9 nM | TGI (HS 578T breast): 235 nM | GI50 (SF-268 CNS): 231 nM | TGI (SF-268 CNS): 1730 nM | GI50 (UO-31 renal): 56.2 nM | TGI (UO-31 renal): 856 nM | GI50 (NCI-H23 lung): 132 nM | TGI (NCI-H23 lung): 5990 nM | GI50 (SNB-75 CNS): 24 nM | TGI (SNB-75 CNS): 113 nM | GI50 (NCI-H522 lung): 71.6 nM | TGI (NCI-H522 lung): 1200 nM | GI50 (NCI-H226 lung): 191 nM | TGI (NCI-H226 lung): 960 nM | GI50 (HCT-15 colon): 89.8 nM | TGI (HCT-15 colon): 12800 nM | GI50 (IGROV1 ovarian): 24.1 nM | TGI (IGROV1 ovarian): 80.3 nM | GI50 (HOP-62 NSCLC): 178 nM | TGI (HOP-62 NSCLC): 1500 nM | GI50 (SK-MEL-5 melanoma): 88.2 nM | TGI (SK-MEL-5 melanoma): 261 nM | GI50 (MDA-MB-468 breast): 26.7 nM | TGI (MDA-MB-468 breast): 146 nM | GI50 (OVCAR-5 ovarian): 145 nM | TGI (OVCAR-5 ovarian): 1750 nM | GI50 (CCRF-CEM leukemia): 59.7 nM | TGI (CCRF-CEM leukemia): 1150 nM | GI50 (MALME-3M melanoma): 24.7 nM | TGI (MALME-3M melanoma): 143 nM | GI50 (EKVX NSCLC): 62.3 nM | TGI (EKVX NSCLC): 447 nM | GI50 (OVCAR-3 ovarian): 53 nM | TGI (OVCAR-3 ovarian): 318 nM | GI50 (OVCAR-4 ovarian): 90.2 nM | TGI (OVCAR-4 ovarian): 854 nM | GI50 (A549 NSCLC): 173 nM | TGI (A549 NSCLC): 1100 nM | GI50 (PC-3 prostate): 41.8 nM | TGI (PC-3 prostate): 434 nM | GI50 (SN12C renal): 82.3 nM | TGI (SN12C renal): > 100000 nM | GI50 (MOLT-4 leukemia): 31.8 nM | TGI (MOLT-4 leukemia): 160 nM | GI50 (SR leukemia): 106 nM | TGI (SR leukemia): 304 nM | GI50 (SF-295 CNS): 45.5 nM | TGI (SF-295 CNS): 257 nM | GI50 (SF-539 CNS): 185 nM | TGI (SF-539 CNS): 1270 nM | GI50 (DU-145 prostate): 188 nM | TGI (DU-145 prostate): 23800 nM | GI50 (RXF 393 renal): 37 nM | TGI (RXF 393 renal): 199 nM
